From paper PMC7377239, “Cardiovascular Effects of Polychlorinated Biphenyls and Their Major Metabolites” (Environmental Health Perspectives, 2020)
Structures can show the parent of a compound that is named as a salt. Where two headings read alike, the source gives them in different places.

Test system: iCell cardiomyocytes (human iPSC-derived cardiomyocytes)
Test: High-content imaging of cytotoxicity and mitochondrial integrity in iPSC-CMs
Format: cell-based
Conditions: Homo sapiens, Cardiomyocyte; for viability at 0.01 µM / activity at 0.01 µM / viability at 0.1 µM / activity at 0.1 µM / viability at 1 µM / activity at 1 µM / viability at 10 µM / activity at 10 µM / viability at 100 µM / activity at 100 µM: 0.00 µM = 100.00; for viability at 0.1 µM / activity at 0.1 µM: 0.10 µM
Experimental: Details on cardiomyocyte cell culture are described in detail elsewhere ([Grimm et al. 2015b]; [Sirenko et al. 2013a]). Briefly, tissue-culture treated 384 well plates were gelatinized with 25μL per well of 0.1% (w/v) gelatin in water for 2 h at 37°C and 5% CO2 . Individual vials of cells were thawed for 4 min in a water bath maintained at 37°C. Thawed cells were resuspended in 10ml plating medium containing 1:500 (vol/vol) penicillin/streptomycin solution at room temperature (RT). Live cell counts for each cell suspension were determined by trypan blue staining and cells were further diluted to provide final cell densities of 2×10^5 viable cells/ml. Thus, 5,000 cells suspended in 25μL media were transferred per well after the gelatin solution had been discarded. Cell culture plates were rested for 30 min at RT before they were incubated for 48 h at 37°C and 5% CO2 . Then, a media exchange with 30μL of fresh maintenance medium containing 1:500 (vol/vol) penicillin/streptomycin solution was performed, and cell media were subsequently changed every 48 h for 12 d. On the experiment day, the medium was completely exchanged with either 25μL (for Ca^2+ flux assay) or 40μL (for imaging) of fresh medium.
Cytotoxicity and effects on mitochondrial integrity of various PCBs and PCB metabolites in induced pluripotent stem cell-CMs (iPSC-CMs) were assessed using high-content cellular imaging in ImageXpress® Micro Confocal (Molecular Devices) as detailed in ([Grimm et al. 2015b]). Cells in 40μL maintenance media were treated with 10μL of 5× chemical solutions to provide test chemicals at final assay concentrations ranging from 0.01 to 100μM . […] Next, sample wells were treated with 50μL equilibrated 2× concentrated staining solution (maintenance medium containing Hoechst 33342, 4μg/mL and MitoTracker™ Orange, 0.4μM ). Microplates were then incubated for 15 min at 37°C and 5% CO2 before cells were washed twice with 30μL maintenance medium. All media were aspirated and discarded, and cells were fixed with […] of a 3.7% formaldehyde solution for 15 min at 37°C and 5% […] . Fixed cells were washed 3× with 25μL PBS before image acquisition using the DAPI (Hoechst 33342) and Cy3 (MitoTracker™ Orange) filters at 10× magnification on the ImageXpress® Micro Confocal high-content confocal microscope (Molecular Devices). The multiwavelength cell scoring applications module in MetaXpress® was used to analyze acquired images.
Phenotypic responses were quantitatively assessed using concentration–response modeling as detailed elsewhere ([Sirenko et al. 2017]). Briefly, phenotypic readouts were normalized to vehicle controls and fit to a four-parameter logistic model in R studio software (version 3.1.1; R Development Core Team). Following EPA guidance on dose–response modeling, a cutoff of one standard deviation across means of vehicle control (i.e., 0.5% vol/vol DMSO in cell culture media) wells was applied to determine the point-of-departure (POD) values ([U.S. EPA 2012]). In the absence of a concentration–response, the highest tested concentration (i.e., 100μM ) was assigned as “no observable adverse effect level.” The concentration–response assessment R script, as well as templates for vehicle and concentration–response data, are available as a supplement to Sirenko et al. ([2017]). The ability of physicochemical properties to predict differences in PODs were evaluated by multiregression and mixed-effects modeling using R.

[1] = 1.5 h, 90min, read-out: cm.cam.90min
[2] = 1.5 h, 90min, read-out: cm.mii.90min
[3] = 1.5 h, 90min, read-out: cm.mito.90min
[4] = 1.5 h, 90min, read-out: cm.tc.90min
[5] = 24 h, 24hrs, read-out: cm.cam.24hrs
[6] = 24 h, 24hrs, read-out: cm.mii.24hrs
[7] = 24 h, 24hrs, read-out: cm.mito.24hrs
[8] = 24 h, 24hrs, read-out: cm.tc.24hrs

Clc1ccc(Cl)c(-c2c(Cl)ccc(Cl)c2Cl)c1 [PCB95]
viability at 0.01 µM [1]: 98.2% | activity at 0.01 µM [2]: 114% | activity at 0.01 µM [3]: 97.8% | viability at 0.01 µM [4]: 97.9% | viability at 0.1 µM [1]: 95.8% | activity at 0.1 µM [2]: 100% | activity at 0.1 µM [3]: 95.4% | viability at 0.1 µM [4]: 95.4% | viability at 1 µM [1]: 93.8% | activity at 1 µM [2]: 109% | activity at 1 µM [3]: 93.2% | viability at 1 µM [4]: 93.1% | viability at 10 µM [1]: 107% | activity at 10 µM [2]: 110% | activity at 10 µM [3]: 107% | viability at 10 µM [4]: 107% | viability at 100 µM [1]: 0.65% | activity at 100 µM [2]: 92.8% | activity at 100 µM [3]: 0.97% | viability at 100 µM [4]: 1.11% | minimal effective concentration (1.5 h, 90min, read-out: cm.cam.90min POD): 36.6 µM | minimal effective concentration (1.5 h, 90min, read-out: cm.mii.90min POD): 100 µM | minimal effective concentration (1.5 h, 90min, read-out: cm.mito.90min POD): 39.6 µM | minimal effective concentration (1.5 h, 90min, read-out: cm.tc.90min POD): 38.7 µM | viability at 0.01 µM [5]: 97.2% | activity at 0.01 µM [6]: 90.3% | activity at 0.01 µM [7]: 95.7% | viability at 0.01 µM [8]: 97.3% | viability at 0.1 µM [5]: 98.9% | activity at 0.1 µM [6]: 99% | activity at 0.1 µM [7]: 99% | viability at 0.1 µM [8]: 99% | viability at 1 µM [5]: 99.8% | activity at 1 µM [6]: 100% | activity at 1 µM [7]: 97.7% | viability at 1 µM [8]: 98.7% | viability at 10 µM [5]: 93.8% | activity at 10 µM [6]: 95.1% | activity at 10 µM [7]: 92.7% | viability at 10 µM [8]: 93.5% | viability at 100 µM [5]: 1.96% | activity at 100 µM [6]: 34.3% | activity at 100 µM [7]: 1.73% | viability at 100 µM [8]: 2.9% | minimal effective concentration (24 h, read-out: cm.cam.24hrs POD): 8.98 µM | minimal effective concentration (24 h, read-out: cm.mii.24hrs POD): 22.2 µM | minimal effective concentration (24 h, read-out: cm.mito.24hrs POD): 8.96 µM | minimal effective concentration (24 h, read-out: cm.tc.24hrs POD): 8.75 µM

O=S(=O)(O)Oc1ccc(-c2cccc(Cl)c2)cc1Cl [4-PCB 11 sulfate]
minimal effective concentration (1.5 h, cardiomyocytes (cm), cam, 90 min, read-out: POD cm.cam.90min): 100 µM | minimal effective concentration (1.5 h, cardiomyocytes (cm), mii, 90 min, read-out: POD cm.mii.90min): 100 µM | minimal effective concentration (1.5 h, cardiomyocytes (cm), mito, 90 min, read-out: POD cm.mito.90min): 100 µM | minimal effective concentration (1.5 h, cardiomyocytes (cm), tc, 90 min, read-out: POD cm.tc.90min): 100 µM | minimal effective concentration (24 h, cardiomyocytes (cm), cam, 24 hrs, read-out: POD cm.cam.24hrs): 5.91 µM | minimal effective concentration (24 h, cardiomyocytes (cm), mii, 24 hrs, read-out: POD cm.mii.24hrs): 49.2 µM | minimal effective concentration (24 h, cardiomyocytes (cm), mito, 24 hrs, read-out: POD cm.mito.24hrs): 7.07 µM | minimal effective concentration (24 h, cardiomyocytes (cm), tc, 24 hrs, read-out: POD cm.tc.24hrs): 6.38 µM
